Reference: the NIST ThermoML archive (doi:10.1016/j.jct.2005.11.005)
Numbers after ± are expanded uncertainties.

Key:
[1] = Molar enthalpy of transition or fusion; conditions: Crystal; DSC
[2] = DTA; for Normal melting temperature: Crystal

SMILES | Molar enthalpy of transition or fusion [1] | Normal melting temperature [2] | Glass transition temperature ([2]; Glass)
O.O.OC[C@H]1O[C@H](O[C@H]2O[C@H](CO)[C@@H](O)[C@H](O)[C@H]2O)[C@H](O)[C@@H](O)[C@@H]1O [D-(+)-trehalose dihydrate] | 26.2 ± 0.669 kcal/mol | 99.10 ± 0.5 °C | 
OC[C@H]1O[C@H](O[C@H]2O[C@H](CO)[C@@H](O)[C@H](O)[C@H]2O)[C@H](O)[C@@H](O)[C@@H]1O [α-trehalose] | 12.8 ± 0.669 kcal/mol | 209.4 ± 0.5 °C | 120.0 ± 2 °C
